According to publication PMC3961306, “Comparison of the Cancer Gene Targeting and Biochemical Selectivities of All Targeted Kinase Inhibitors Approved for Clinical Use” (PLoS ONE, 2014):

Assays:
Assay in all cases: Kinase profiling in a biochemical assay panel (mobility shift assays and ELISA), %-inhibition at 1 μM; selectivity entropy
[1] = target: T1, panel of more than 300 wild-type and mutant kinases (313 kinase panel) (Homo sapiens, UniProt Q13237); conditions: kinase CGK2; 1 μM compound
T1 sequence (Q13237 1-762): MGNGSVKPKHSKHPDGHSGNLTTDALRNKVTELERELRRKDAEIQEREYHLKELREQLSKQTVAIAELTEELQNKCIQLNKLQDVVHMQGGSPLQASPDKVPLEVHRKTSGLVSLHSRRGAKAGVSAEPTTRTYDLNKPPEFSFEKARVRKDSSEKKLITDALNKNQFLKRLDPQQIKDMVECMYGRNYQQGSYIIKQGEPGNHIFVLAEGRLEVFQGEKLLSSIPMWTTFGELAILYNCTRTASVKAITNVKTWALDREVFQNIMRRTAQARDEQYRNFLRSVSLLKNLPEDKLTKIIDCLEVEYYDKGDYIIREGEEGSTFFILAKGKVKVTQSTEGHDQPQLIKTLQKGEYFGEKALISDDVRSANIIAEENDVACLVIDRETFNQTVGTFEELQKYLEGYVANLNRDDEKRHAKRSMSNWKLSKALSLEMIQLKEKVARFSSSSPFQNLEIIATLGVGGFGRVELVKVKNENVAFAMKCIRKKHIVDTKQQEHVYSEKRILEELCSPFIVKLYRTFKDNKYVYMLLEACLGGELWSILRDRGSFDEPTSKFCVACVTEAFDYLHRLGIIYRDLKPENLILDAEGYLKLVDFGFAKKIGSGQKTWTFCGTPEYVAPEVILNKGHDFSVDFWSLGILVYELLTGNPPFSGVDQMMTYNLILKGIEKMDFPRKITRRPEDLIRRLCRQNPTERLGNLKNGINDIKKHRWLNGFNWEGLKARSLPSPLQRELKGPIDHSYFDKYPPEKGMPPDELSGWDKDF

[2] = target: panel of more than 300 wild-type and mutant kinases (313 kinase panel) (Homo sapiens, UniProt Q04912); conditions: kinase RON; 1 μM
[3] = target: T2, panel of more than 300 wild-type and mutant kinases (313 kinase panel) (Homo sapiens, UniProt Q9NWZ3); conditions: kinase IRAK4; compound at 1 μM
T2 sequence (Q9NWZ3 1-460): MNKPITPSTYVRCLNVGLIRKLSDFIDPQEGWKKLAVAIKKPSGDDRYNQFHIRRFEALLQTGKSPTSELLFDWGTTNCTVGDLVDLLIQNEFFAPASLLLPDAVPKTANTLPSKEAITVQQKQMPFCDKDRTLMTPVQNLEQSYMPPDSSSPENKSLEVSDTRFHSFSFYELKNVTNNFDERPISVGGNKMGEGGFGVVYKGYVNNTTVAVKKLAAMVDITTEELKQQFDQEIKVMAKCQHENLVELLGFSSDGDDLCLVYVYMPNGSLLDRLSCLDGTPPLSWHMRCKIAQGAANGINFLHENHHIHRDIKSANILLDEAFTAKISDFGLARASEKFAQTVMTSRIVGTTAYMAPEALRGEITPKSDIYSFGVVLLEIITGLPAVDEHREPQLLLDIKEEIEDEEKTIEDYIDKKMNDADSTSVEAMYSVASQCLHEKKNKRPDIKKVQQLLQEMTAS

[4] = target: T3, panel of more than 300 wild-type and mutant kinases (313 kinase panel) (Homo sapiens, UniProt Q9UL54); conditions: kinase TAOK2; 1 μM
T3 sequence (Q9UL54 1-1235): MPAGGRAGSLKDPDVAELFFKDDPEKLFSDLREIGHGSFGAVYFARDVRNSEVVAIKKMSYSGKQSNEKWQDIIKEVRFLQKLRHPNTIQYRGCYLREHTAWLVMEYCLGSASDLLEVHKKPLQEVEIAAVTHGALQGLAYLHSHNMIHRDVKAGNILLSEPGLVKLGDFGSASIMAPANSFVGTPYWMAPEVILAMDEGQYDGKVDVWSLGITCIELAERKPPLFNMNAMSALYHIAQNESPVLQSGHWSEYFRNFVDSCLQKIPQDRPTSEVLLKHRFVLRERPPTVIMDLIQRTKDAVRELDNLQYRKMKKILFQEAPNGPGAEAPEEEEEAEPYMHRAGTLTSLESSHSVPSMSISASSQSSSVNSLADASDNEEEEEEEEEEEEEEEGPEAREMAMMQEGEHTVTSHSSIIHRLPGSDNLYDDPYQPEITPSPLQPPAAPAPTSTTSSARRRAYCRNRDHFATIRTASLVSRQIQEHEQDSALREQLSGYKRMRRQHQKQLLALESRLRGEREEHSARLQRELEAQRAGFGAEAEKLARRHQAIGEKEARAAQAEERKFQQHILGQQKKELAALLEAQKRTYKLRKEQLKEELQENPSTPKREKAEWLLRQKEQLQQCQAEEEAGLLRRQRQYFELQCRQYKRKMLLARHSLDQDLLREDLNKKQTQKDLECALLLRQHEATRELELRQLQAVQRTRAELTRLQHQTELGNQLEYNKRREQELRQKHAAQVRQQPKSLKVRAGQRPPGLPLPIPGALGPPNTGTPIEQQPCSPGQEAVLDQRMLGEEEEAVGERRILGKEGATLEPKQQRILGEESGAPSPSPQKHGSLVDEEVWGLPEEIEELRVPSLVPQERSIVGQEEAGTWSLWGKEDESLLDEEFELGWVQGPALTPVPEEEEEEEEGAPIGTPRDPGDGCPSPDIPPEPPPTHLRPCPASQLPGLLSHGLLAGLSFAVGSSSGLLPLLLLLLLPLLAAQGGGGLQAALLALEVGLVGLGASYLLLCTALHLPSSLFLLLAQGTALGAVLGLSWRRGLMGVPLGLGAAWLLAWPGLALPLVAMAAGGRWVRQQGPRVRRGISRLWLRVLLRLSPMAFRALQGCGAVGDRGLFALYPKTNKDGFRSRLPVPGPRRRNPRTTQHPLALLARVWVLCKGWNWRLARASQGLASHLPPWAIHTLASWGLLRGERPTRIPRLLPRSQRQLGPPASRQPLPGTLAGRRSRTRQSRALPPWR

[5] = target: panel of more than 300 wild-type and mutant kinases (313 kinase panel) (Homo sapiens, UniProt P49137); conditions: kinase MAPKAPK2; compound at 1 μM
[6] = target: panel of more than 300 wild-type and mutant kinases (313 kinase panel) (Homo sapiens, UniProt P17948); conditions: kinase FLT1; compound at 1 μM

panel of more than 300 wild-type and mutant kinases (313 kinase panel) (Homo sapiens, UniProt P49137), sequence (P49137 whole entry, change not shown): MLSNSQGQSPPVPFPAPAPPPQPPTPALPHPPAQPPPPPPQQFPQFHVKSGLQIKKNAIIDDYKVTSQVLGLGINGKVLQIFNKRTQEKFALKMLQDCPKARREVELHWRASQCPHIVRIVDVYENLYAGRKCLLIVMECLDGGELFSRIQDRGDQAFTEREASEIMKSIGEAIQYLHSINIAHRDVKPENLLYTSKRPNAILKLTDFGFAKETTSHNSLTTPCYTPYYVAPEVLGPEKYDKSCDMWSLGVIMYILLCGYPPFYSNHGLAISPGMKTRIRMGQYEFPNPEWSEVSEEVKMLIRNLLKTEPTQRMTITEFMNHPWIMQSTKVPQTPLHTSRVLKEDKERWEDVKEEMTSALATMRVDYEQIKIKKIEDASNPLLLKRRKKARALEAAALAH

COc1cc2nccc(Oc3ccc(NC(=O)C4(C(=O)Nc5ccc(F)cc5)CC4)cc3)c2cc1OC [cabozantinib]
%-inhibition, CGK2 [1]: -2.55% | %-inhibition of RON [2]: 99% | %-inhibition of IRAK4 [3]: -4% | %-inhibition of TAOK2 [4]: 6% | %-inhibition of MAPKAPK2 [5]: -17% | %-inhibition of FLT1 [6]: 99%
